Results reported in patent US20150289513A1, “USE OF A COMPOUND COMPRISING A POLYFLUOROBENZYL MOIETY AGAINST INSECTICIDE-RESISTANT PESTS” (priority 2012, published 2015).

Columns and labels:
[1] = test system: Anopheles funestus (metabolic-resistant strain FUMOZ-R); assay: Glazed tile contact test, knock-down; type: in vivo
Description: (§1) To produce a suitable preparation Transfluthrin was dissolved in acetone. The active compound solution was pipetted onto a glazed tile and, after drying, adult mosquitoes of the species: • Anopheles gambiae (target-site-resistant and metabolic-resistant strain: RSPH), • Anopheles gambiae (target-site-resitant and metabolic-resistant strain: Tiassalé), • Anopheles gambiae (tar et-site-resitant and metabolic-resistant strain: Akron), • Anopheles gambiae (target-site-resistant strain: VK7), and • Anopheles funestus (metabolic-resistant strain FUMOZ-R) were placed onto the treated tile (each strain was tested on separate tiles). The exposition time was 30 minutes.
0.25 hours, 0.5 hours, 1 hour, 2 hour, 3 hour, 4 hour and 24 hours after contact to the treated surface, the knock-down proportion of the test animals in % was determined. Here, 100% (effect) means that all mosquitoes have been killed; 0% (effect) means that none of the mosquitoes have been killed.
(§2) Similarly as outlined in example 2 for Transfluthrin, Metofluthrin efficacy was assessed against • Anopheles gambiae (target-site-resistant and metabolic-resistant strain: RSPH), • Anopheles funestus (metabolic-resistant strain FUMOZ-R), and • Culex quinquefasciatus (metabolic-resistant to DDT; strain P00), with the results shown in Tables 10 to 12. 0.25 hours, 0.5 hours, 1 hour, 2 hour, 3 hour, 4 hour and 24 hours after contact to the treated surface, the knock-down proportion of the test animals in % is depicted in Tables 10 to 12. 100% (effect) means that all mosquitoes have been killed; 0% (effect) means that none of the mosquitoes have been killed.
Similarly as outlined in example 2 for Transfluthrin, Metofluthrin efficacy was assessed against • Anopheles gambiae (target-site-resistant and metabolic-resistant strain: RSPH), • Anopheles funestus (metabolic-resistant strain FUMOZ-R), and with the results shown in Tables […]. 0.25 hours, 0.5 hours, 1 hour, 2 hour and 3 hours after contact to the treated surface, the knock-down proportion of the test animals in % is depicted in Tables 13 to 14. 100% (effect) means that all mosquitoes have been killed; 0% (effect) means that none of the mosquitoes have been killed.

[2] = test system: Culex quinquefasciatus (metabolic-resistant to DDT; strain P00); assay: Glazed tile contact test, knock-down; type: in vivo
Description: as §1, §2

[3] = 0.064 /ha, 0.25 h after contact

CC=CC1C(C(=O)OCc2c(F)c(F)c(COC)c(F)c2F)C1(C)C (centres unmarked) [Metofluthrin, 2,3,5,6-Tetrafluoro-4-(methoxymethyl)benzyl 2,2-dimethyl-3-(prop-1-en-1-yl)cyclopropanecarboxylate]
Effect % [1, 3]: 0% | Effect % ([1]; 0.064 /ha, 0.5 h after contact): 0% | Effect % ([1]; 0.064 /ha, 1 h after contact): 0% | Effect % ([1]; 0.064 /ha, 2 h after contact): 0% | Effect % ([1]; 0.064 /ha, 3 h after contact): 0% | Effect % ([1]; 0.064 /ha, 4 h after contact): 0% | Effect % ([1]; 0.064 /ha, 24 h after contact): 20% | Effect % ([1]; 0.32 /ha, 0.25 h after contact): 0% | Effect % ([1]; 0.32 /ha, 0.5 h after contact): 0% | Effect % ([1]; 0.32 /ha, 1 h after contact): 0% | Effect % ([1]; 0.32 /ha, 2 h after contact): 0% | Effect % ([1]; 0.32 /ha, 3 h after contact): 0% | Effect % ([1]; 0.32 /ha, 4 h after contact): 0% | Effect % ([1]; 0.32 /ha, 24 h after contact): 10% | Effect % ([1]; 1.6 /ha, 0.25 h after contact): 90% | Effect % ([1]; 1.6 /ha, 0.5 h after contact): 100% | Effect % ([1]; 1.6 /ha, 1 h after contact): 100% | Effect % ([1]; 1.6 /ha, 2 h after contact): 80% | Effect % ([1]; 1.6 /ha, 3 h after contact): 40% | Effect % ([1]; 1.6 /ha, 4 h after contact): 40% | Effect % ([1]; 1.6 /ha, 24 h after contact): 70% | Effect % ([1]; 8 /ha, 0.25 h after contact): 100% | Effect % ([1]; 8 /ha, 0.5 h after contact): 100% | Effect % ([1]; 8 /ha, 1 h after contact): 100% | Effect % ([1]; 8 /ha, 2 h after contact): 100% | Effect % ([1]; 8 /ha, 3 h after contact): 100% | Effect % ([1]; 8 /ha, 4 h after contact): 100% | Effect % ([1]; 8 /ha, 24 h after contact): 100% | Effect % ([1]; 40 /ha, 0.25 h after contact): 100% | Effect % ([1]; 40 /ha, 0.5 h after contact): 100% | Effect % ([1]; 40 /ha, 1 h after contact): 100% | Effect % ([1]; 40 /ha, 2 h after contact): 100% | Effect % ([1]; 40 /ha, 3 h after contact): 100% | Effect % ([1]; 40 /ha, 4 h after contact): 100% | Effect % ([1]; 40 /ha, 24 h after contact): 100% | Effect % ([1]; 200 /ha, 0.25 h after contact): 100% | Effect % ([1]; 200 /ha, 0.5 h after contact): 100% | Effect % ([1]; 200 /ha, 1 h after contact): 100% | Effect % ([1]; 200 /ha, 2 h after contact): 100% | Effect % ([1]; 200 /ha, 3 h after contact): 100% | Effect % ([1]; 200 /ha, 4 h after contact): 100% | Effect % ([1]; 200 /ha, 24 h after contact): 100% | Effect % ([1]; 1000 /ha, 0.25 h after contact): 100% | Effect % ([1]; 1000 /ha, 0.5 h after contact): 100% | Effect % ([1]; 1000 /ha, 1 h after contact): 100% | Effect % ([1]; 1000 /ha, 2 h after contact): 100% | Effect % ([1]; 1000 /ha, 3 h after contact): 100% | Effect % ([1]; 1000 /ha, 4 h after contact): 100% | Effect % ([1]; 1000 /ha, 24 h after contact): 100% | Effect % [2, 3]: 0% | Effect % ([2]; 0.064 /ha, 0.5 h after contact): 0% | Effect % ([2]; 0.064 /ha, 1 h after contact): 0% | Effect % ([2]; 0.064 /ha, 2 h after contact): 0% | Effect % ([2]; 0.064 /ha, 3 h after contact): 0% | Effect % ([2]; 0.064 /ha, 4 h after contact): 0% | Effect % ([2]; 0.064 /ha, 24 h after contact): 0% | Effect % ([2]; 0.32 /ha, 0.25 h after contact): 0% | Effect % ([2]; 0.32 /ha, 0.5 h after contact): 0% | Effect % ([2]; 0.32 /ha, 1 h after contact): 0% | Effect % ([2]; 0.32 /ha, 2 h after contact): 0% | Effect % ([2]; 0.32 /ha, 3 h after contact): 0% | Effect % ([2]; 0.32 /ha, 4 h after contact): 0% | Effect % ([2]; 0.32 /ha, 24 h after contact): 10% | Effect % ([2]; 1.6 /ha, 0.25 h after contact): 90% | Effect % ([2]; 1.6 /ha, 0.5 h after contact): 100% | Effect % ([2]; 1.6 /ha, 1 h after contact): 100% | Effect % ([2]; 1.6 /ha, 2 h after contact): 100% | Effect % ([2]; 1.6 /ha, 3 h after contact): 100% | Effect % ([2]; 1.6 /ha, 4 h after contact): 100% | Effect % ([2]; 1.6 /ha, 24 h after contact): 100% | Effect % ([2]; 8 /ha, 0.25 h after contact): 100% | Effect % ([2]; 8 /ha, 0.5 h after contact): 100% | Effect % ([2]; 8 /ha, 1 h after contact): 100% | Effect % ([2]; 8 /ha, 2 h after contact): 100% | Effect % ([2]; 8 /ha, 3 h after contact): 100% | Effect % ([2]; 8 /ha, 4 h after contact): 100% | Effect % ([2]; 8 /ha, 24 h after contact): 100% | Effect % ([2]; 40 /ha, 0.25 h after contact): 100% | Effect % ([2]; 40 /ha, 0.5 h after contact): 100% | Effect % ([2]; 40 /ha, 1 h after contact): 100% | Effect % ([2]; 40 /ha, 2 h after contact): 100% | Effect % ([2]; 40 /ha, 3 h after contact): 100% | Effect % ([2]; 40 /ha, 4 h after contact): 100% | Effect % ([2]; 40 /ha, 24 h after contact): 100% | Effect % ([2]; 200 /ha, 0.25 h after contact): 100% | Effect % ([2]; 200 /ha, 0.5 h after contact): 100% | Effect % ([2]; 200 /ha, 1 h after contact): 100% | Effect % ([2]; 200 /ha, 2 h after contact): 100% | Effect % ([2]; 200 /ha, 3 h after contact): 100% | Effect % ([2]; 200 /ha, 4 h after contact): 100% | Effect % ([2]; 200 /ha, 24 h after contact): 100% | Effect % ([2]; 1000 /ha, 0.25 h after contact): 100% | Effect % ([2]; 1000 /ha, 0.5 h after contact): 100% | Effect % ([2]; 1000 /ha, 1 h after contact): 100% | Effect % ([2]; 1000 /ha, 2 h after contact): 100% | Effect % ([2]; 1000 /ha, 3 h after contact): 100% | Effect % ([2]; 1000 /ha, 4 h after contact): 100% | Effect % ([2]; 1000 /ha, 24 h after contact): 100%

CC1(C)[C@H](C=C(Cl)Cl)[C@H]1C(=O)OCc1c(F)c(F)cc(F)c1F [Transfluthrin, (1R,3S)-3-(2,2-Dichlorovinyl)-2,2-dimethyl-1-cyclopropanecarboxylic acid (2,3,5,6-tetrafluorophenyl)methyl ester]
Effect % ([1]; 0.32 g/ha, 0.25 h after contact): 95% | Effect % ([1]; 0.32 g/ha, 0.5 h after contact): 100% | Effect % ([1]; 0.32 g/ha, 1 h after contact): 100% | Effect % ([1]; 0.32 g/ha, 2 h after contact): 60% | Effect % ([1]; 0.32 g/ha, 3 h after contact): 40% | Effect % ([1]; 0.32 g/ha, 4 h after contact): 40% | Effect % ([1]; 1.6 g/ha, 0.25 h after contact): 100% | Effect % ([1]; 1.6 g/ha, 0.5 h after contact): 100% | Effect % ([1]; 1.6 g/ha, 1 h after contact): 100% | Effect % ([1]; 1.6 g/ha, 2 h after contact): 100% | Effect % ([1]; 1.6 g/ha, 3 h after contact): 95% | Effect % ([1]; 1.6 g/ha, 4 h after contact): 100% | Effect % ([1]; 8 g/ha, 0.25 h after contact): 100% | Effect % ([1]; 8 g/ha, 0.5 h after contact): 100% | Effect % ([1]; 8 g/ha, 1 h after contact): 100% | Effect % ([1]; 8 g/ha, 2 h after contact): 100% | Effect % ([1]; 8 g/ha, 3 h after contact): 100% | Effect % ([1]; 8 g/ha, 4 h after contact): 100% | Effect % ([1]; 40 g/ha, 0.25 h after contact): 100% | Effect % ([1]; 40 g/ha, 0.5 h after contact): 100% | Effect % ([1]; 40 g/ha, 1 h after contact): 100% | Effect % ([1]; 40 g/ha, 2 h after contact): 100% | Effect % ([1]; 40 g/ha, 3 h after contact): 100% | Effect % ([1]; 40 g/ha, 4 h after contact): 100% | Effect % ([1]; 200 g/ha, 0.25 h after contact): 100% | Effect % ([1]; 200 g/ha, 0.5 h after contact): 100% | Effect % ([1]; 200 g/ha, 1 h after contact): 100% | Effect % ([1]; 200 g/ha, 2 h after contact): 100% | Effect % ([1]; 200 g/ha, 3 h after contact): 100% | Effect % ([1]; 200 g/ha, 4 h after contact): 100%
